Measurements taken from PubChem BioAssay (NCI).
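A five-concentration, 48-hour dose response in 96-well plates underlies each endpoint, interpolated linearly between surrounding concentrations. Definition used: TGI = concentration required for complete inhibition of growth.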

Legend:
Experiment in all cases: NCI anticancer screen, dose series, 48 h
OVCAR-5 ovarian = test system: OVCAR-5 ovarian
T-47D breast = test system: T-47D breast
OVCAR-4 ovarian = test system: OVCAR-4 ovarian
SF-295 CNS = test system: SF-295 CNS
MDA-N = test system: MDA-N
A549 NSCLC = test system: A549 NSCLC
SF-539 CNS = test system: SF-539 CNS
UACC-257 melanoma = test system: UACC-257 melanoma
NCI-H522 lung = test system: NCI-H522 lung
BT-549 breast = test system: BT-549 breast
SK-MEL-28 melanoma = test system: SK-MEL-28 melanoma
UACC-62 melanoma = test system: UACC-62 melanoma
NCI-H226 lung = test system: NCI-H226 lung
CAKI-1 renal = test system: CAKI-1 renal
HL-60(TB) leukemia = test system: HL-60(TB) leukemia
HS 578T breast = test system: HS 578T breast
IGROV1 ovarian = test system: IGROV1 ovarian
NCI/ADR-RES ovarian = test system: NCI/ADR-RES ovarian
EKVX NSCLC = test system: EKVX NSCLC
MDA-MB-435 = test system: MDA-MB-435
LOX IMVI melanoma = test system: LOX IMVI melanoma
786-0 renal = test system: 786-0 renal
HOP-92 NSCLC = test system: HOP-92 NSCLC
OVCAR-8 ovarian = test system: OVCAR-8 ovarian
MDA-MB-231 breast = test system: MDA-MB-231 breast
SK-MEL-2 melanoma = test system: SK-MEL-2 melanoma
SNB-19 CNS = test system: SNB-19 CNS
SNB-75 CNS = test system: SNB-75 CNS
A498 renal = test system: A498 renal
NCI-H23 lung = test system: NCI-H23 lung
DU-145 prostate = test system: DU-145 prostate
K-562 leukemia = test system: K-562 leukemia
OVCAR-3 ovarian = test system: OVCAR-3 ovarian
MCF7 breast = test system: MCF7 breast
MALME-3M melanoma = test system: MALME-3M melanoma
MOLT-4 leukemia = test system: MOLT-4 leukemia
NCI-H460 lung = test system: NCI-H460 lung
HOP-62 NSCLC = test system: HOP-62 NSCLC
HCC-2998 colon = test system: HCC-2998 colon
SK-MEL-5 melanoma = test system: SK-MEL-5 melanoma
M14 melanoma = test system: M14 melanoma
RXF 393 renal = test system: RXF 393 renal
UO-31 renal = test system: UO-31 renal
HCT-116 colon = test system: HCT-116 colon
RPMI-8226 leukemia = test system: RPMI-8226 leukemia
SN12C renal = test system: SN12C renal
TK-10 renal = test system: TK-10 renal
SF-268 CNS = test system: SF-268 CNS
ACHN renal = test system: ACHN renal
CCRF-CEM leukemia = test system: CCRF-CEM leukemia
KM12 colon = test system: KM12 colon
PC-3 prostate = test system: PC-3 prostate
SK-OV-3 ovarian = test system: SK-OV-3 ovarian
COLO 205 colon = test system: COLO 205 colon
HT29 colon = test system: HT29 colon
U251 CNS = test system: U251 CNS

Molecule COc1ccc(Cl)cc1NC(=O)O/N=C(\Cl)C(C)C has a TGI (OVCAR-5 ovarian) of 34.2 µM, a TGI (T-47D breast) of 16.8 µM and a TGI (OVCAR-4 ovarian) of 34.1 µM. It also gave a TGI (SF-295 CNS) of 33.9 µM, a TGI (MDA-N) of 26.2 µM and a TGI (A549 NSCLC) of 37.9 µM. For the same molecule, the TGI (SF-539 CNS) was 29.4 µM, the TGI (UACC-257 melanoma) was 35.9 µM and the TGI (NCI-H522 lung) was 2.46 µM. The TGI (BT-549 breast) was 6.9 µM, the TGI (SK-MEL-28 melanoma) was 42.9 µM and the TGI (UACC-62 melanoma) was 32.1 µM. The TGI (NCI-H226 lung) was 33.2 µM, the TGI (CAKI-1 renal) was 3.24 µM and the TGI (HL-60(TB) leukemia) was > 24.5 µM. The TGI (HS 578T breast) was 69.2 µM, the TGI (IGROV1 ovarian) was 27.1 µM and the TGI (NCI/ADR-RES ovarian) was 16.6 µM. The TGI (EKVX NSCLC) was 13.5 µM, the TGI (MDA-MB-435) was 47.6 µM and the TGI (LOX IMVI melanoma) was 5.06 µM. For the same molecule, the TGI (786-0 renal) was 27.1 µM, the TGI (HOP-92 NSCLC) was 3.9 µM and the TGI (OVCAR-8 ovarian) was 32.7 µM. The TGI (MDA-MB-231 breast) was 15.1 µM, the TGI (SK-MEL-2 melanoma) was 33.9 µM and the TGI (SNB-19 CNS) was > 61.7 µM. The TGI (SNB-75 CNS) was 38.7 µM, the TGI (A498 renal) was 46.8 µM and the TGI (NCI-H23 lung) was 47.7 µM. The TGI (DU-145 prostate) was 37.4 µM, the TGI (K-562 leukemia) was 7.59 µM and the TGI (OVCAR-3 ovarian) was 18.7 µM. For the same molecule, the TGI (MCF7 breast) was 38.6 µM, the TGI (MALME-3M melanoma) was 5.28 µM and the TGI (MOLT-4 leukemia) was 6.11 µM. The TGI (NCI-H460 lung) was 37.6 µM, the TGI (HOP-62 NSCLC) was 35.2 µM and the TGI (HCC-2998 colon) was 35.7 µM. The TGI (SK-MEL-5 melanoma) was > 44.5 µM, the TGI (M14 melanoma) was 13 µM and the TGI (RXF 393 renal) was 17.4 µM. For the same molecule, the TGI (UO-31 renal) was 28.5 µM, the TGI (HCT-116 colon) was 45.5 µM and the TGI (RPMI-8226 leukemia) was 4.61 µM. The TGI (SN12C renal) was 23.4 µM, the TGI (TK-10 renal) was 6.93 µM and the TGI (SF-268 CNS) was 47.4 µM. For the same molecule, the TGI (ACHN renal) was 4.21 µM, the TGI (CCRF-CEM leukemia) was > 29.7 µM and the TGI (KM12 colon) was 35.5 µM. It also gave a TGI (PC-3 prostate) of 32.3 µM, a TGI (SK-OV-3 ovarian) of 34.7 µM and a TGI (COLO 205 colon) of 3.5 µM. For the same molecule, the TGI (HT29 colon) was 43.8 µM and the TGI (U251 CNS) was > 59.4 µM.
